Converted amounts (≈) assume the structure as drawn. Where two headings read alike, the source gives them in different places. Ends that are not written are not given here.
Assays:
[1] = tested on: Eenterococcus faecalis
Experimental: (§1) MICs of the peptides against six standard bacteria and four multidrug-resistant bacteria were determined by a broth microdilution assay as described previously. […] Cytotoxicities against mammalian cells were measured against human RBCs, mouse macrophage-derived RAW264.7 cells, and fibroblast NIH-3T3 cells. The anti-inflammatory activities of the peptides were examined by inhibiting nitrite production in LPS-stimulated RAW264.7 cells.

[2] = tested on: MDRAB 12035(R); conditions: broth microdilution, 16 h; unit not given
Experimental: (§2) We examined the antimicrobial activities of the peptides against multidrug-resistant bacterial strains, including four gram-negative species (S. typhimurium 8009(R), E. coli 1229(R), P. aeruginosa 2095(R), and A. baumannii 12035(R); Table 3).
as §1

[3] = tested on: MDREC 1229(R); conditions: 16 h
Experimental: as §2, §1

[4] = tested on: MDRPA 2095(R); conditions: 16 h
Experimental: as §2, §1

[5] = tested on: MDRST 8009(R); conditions: broth microdilution, 16 h; unit not given
Experimental: as §2, §1

[6] = tested on: gram-negative bacteria (E. coli, S. typhimurium, P. aeruginosa); conditions: for Therapeutic Index (MHC/GM), gram-negative: ratio MHC (μM) over GM of MIC (μM)
Experimental: (§3) This property is assessed by the therapeutic index which can be defined as a ratio of the […] against human hRBCs to the MIC against bacterial cells.
as §1

[7] = tested on: gram-positive bacteria (B. subtilis, E. faecalis, S. aureus); conditions: for Therapeutic Index (MHC/GM), gram-positive: ratio MHC (μM) over GM of MIC (μM)
Experimental: as §3, §1

[8] = tested on: human erythrocytes; assay: Hemolytic activity; format: cell-based; conditions: for MHC (minimal peptide concentration that produces hemolysis): human RBCs, 200 μM entered when no detectable hemolysis at 100 μM
Experimental: (§4) We examined the cytotoxicity against human erythrocytes. […] Next, we examined the cytotoxicity of the peptides against RAW264.7 macrophage cells. We assessed the effects of the peptides on cell growth by measuring mitochondrial reduction of MTT to a colored product in live cells. […] On the other hand, PapC produced high cytotoxicity against RAW264.7 cells, even at low concentrations. […] In case of PapN-2A, Pap-5A, and Pap-2A5A, the cell survival rates at a peptide concentration of 100 μM were approximately 90% or more. Thus, Trp^2 and Phe^5 are important for the cytotoxic activity of papiliocin toward RAW264.7 cells.
as §1

[9] = tested on: RAW264.7 macrophage cells; assay: Cytotoxicity, MTT; format: cell-based, mouse
Experimental: as §4, §1

[10] = Calcein leakage from zwitterionic LUVs; conditions: EYPC/CH 10:1 LUVs, mimic human erythrocytes
Experimental: Figure 5 Dose-response curves of calcein leakage from (A) egg yolk phosphatidylcholine (EYPC)/egg yolk phosphatidylglycerol (EYPG) (7:3, w:w) and (B) EYPC/cholesterol (CH) large unilamellar vesicles (LUVs; 10:1, w-w) induced by the peptides. Calcein leakage was measured 2 min after the addition of papiliocin. The lipid concentration used in the leakage experiments was 64 μM.
None of the peptides containing the N-terminal helix permeated zwitterionic vesicles (10:1 [w/w] EYPC/CH) effectively. Zwitterionic vesicles mimic the outer leaflet components of human erythrocytes.
In order to investigate the mode of action, membrane permeabilization ability was monitored using a model membrane and E.coli. Calcein leakage induced by the peptides was measured in egg yolk phosphatidylcholine (EYPC)/egg yolk phosphatidylglycerol (EYPG) (7:3, w/w) and EYPC/cholesterol (CH) large unilamellar vesicles (LUVs; 10:1, w:w) as described previously. The depolarization assay was conducted with intact E. coli bacteria (KCTC 1682) as well as E. coli spheroplasts (ATCC 25922)[51][52]. The ability of peptide to depolarize the membrane is indicated by an increase in the fluorescence of diSC3-5. […] The membrane potential dissipating activity of the peptides can be calculated as follows: […]

[11] = tested on: Bacillus subtilis
Experimental: as §1

[12] = tested on: Escherichia coli
Experimental: as §1

[13] = tested on: Pseudomonas aeruginosa
Experimental: as §1

[14] = tested on: Salmonella typhimurium
Experimental: as §1

[15] = tested on: Staphylococcus aureus
Experimental: as §1

[16] = tested on: E. coli (KCTC 1682); assay: Time-killing kinetics; format: cell-based, Escherichia coli; conditions: even at 4× MIC, 37 °C
[17] = tested on: LPS-stimulated RAW264.7 cells; assay: Inhibition of NO (nitrite) production; format: cell-based, mouse; conditions: 10 μM peptide stated for PapN series
Excerpt: When released from gram-negative bacteria, LPS causes septic shock by inducing the production of pro-inflammatory cytokines and NO[33]. To examine the structural mechanism of the anti-inflammatory activity of papiliocin, we indirectly measured inhibition of NO production by the peptides in LPS-simulated RAW264.7 macrophages. […] Papiliocin was markedly more efficient than papiliocin-2A, papiliocin-5A, or papiliocin-2A5A, implying that Trp^2 and Phe^5 are important for anti-inflammatory activity.
as §1

[18] = STD-NMR of peptides bound to LPS; format: binding; conditions: 0.5 mM peptide, 0.1 mg/mL LPS in D2O, pH 5.9, 298 K
Experimental: To investigate the mode of peptide interaction with LPS, we performed STD-NMR experiments.
(A) Papiliocin, (B) PapN, and (C) PapC. Spectral differences primarily constituted resonances fromn the peptide protons bound to LPS. The STD experiments were carried out using a peptide concentration of 0.5 mM in presence of 0.1 mg/mL LPS in D2O, pH 5.9 at 298 K.

[19] = broth microdilution, 16 h incubation, three independent experiments in triplicate, SD 14.0%
[20] = broth microdilution, unit not given
[21] = three gram-negative standard strains, 256 μM used when no activity at 128 μM
[22] = three gram-positive standard strains, 256 μM used when no activity at 128 μM

Row | Compound | MIC, Eenterococcus faecalis [1, 19] [µM] | MIC, MDRAB 12035(R) [2] [µM] | MIC, MDREC 1229(R) [3, 20] [µM] | MIC, MDRPA 2095(R) [4, 20] [µM] | MIC, MDRST 8009(R) [5] [µM] | Therapeutic Index (MHC/GM), gram-negative [6] | GM of the MIC values, gram-negative [6, 21] [µM] | Therapeutic Index (MHC/GM), gram-positive [7] | GM of the MIC values, gram-positive [7, 22] [µM] | MHC (minimal peptide concentration that produces hemolysis) [8] [µM] | MIC, Bacillus subtilis ([11]; 16 h) [µM] | MIC, Eenterococcus faecalis ([1]; E, 16 h) [µM] | MIC, Escherichia coli ([12]; 16 h) [µM] | MIC, Pseudomonas aeruginosa ([13]; 16 h) [µM] | MIC, Salmonella typhimurium ([14]; murium, 16 h) [µM] | MIC, Staphylococcus aureus ([15]; 16 h) [µM] | MIC, MDREC 1229(R) [3] [µM] | MIC, MDRPA 2095(R) [4] [µM] | GM of the MIC values, gram-negative ([6]; 16 h) [µM] | GM of the MIC values, gram-positive ([7]; 16 h) [µM] | other results
1 | CC[C@H](C)[C@H](NC(=O)CN)C(=O)NCC(=O)N[C@@H](C)C(=O)N[C@H](C(=O)N[C@@H](CC(C)C)C(=O)N[C@@H](CCCCN)C(=O)N[C@H](C(=O)N[C@@H](CC(C)C)C(=O)N[C@H](C(=O)N[C@H](C(=O)NCC(=O)N[C@@H](CC(C)C)C(=O)N1CCC[C@H]1C(=O)N[C@@H](C)C(=O)N[C@@H](CC(C)C)C(=O)N[C@H](C(=O)N[C@@H](CO)C(=O)N[C@@H](Cc1c[nH]c2ccccc12)C(=O)N[C@H](C(=O)N[C@@H](CCCCN)C(=O)N[C@@H](CCCNC(=N)N)C(=O)N[C@@H](CCCCN)C(=O)N[C@@H](CCCNC(=N)N)C(=O)N[C@@H](CCC(N)=O)C(=O)N[C@@H](CCC(N)=O)C(N)=O)[C@@H](C)CC)[C@@H](C)CC)[C@@H](C)O)[C@@H](C)O)C(C)C)C(C)C [Melittin, reference compound] | 2.00 (≈ 5.69 µg/mL) | 4.00 (≈ 11.4 µg/mL) | 8.00 (≈ 22.8 µg/mL) | 2.00 (≈ 5.69 µg/mL) | 8.00 (≈ 22.8 µg/mL) | 0.098 | 4.00 | 0.117 | 3.33 | 0.391 | – | – | – | – | – | – | – | – | – | – | cytotoxicity at the peptide's MIC ([9]; hRBCs and RAW264.7 cells (Fig. 4A,B)): high cytotoxicity at its MIC; permeabilization of zwitterionic vesicles, in words [10]: membrane-disrupting activities against both negatively charged and zwitterionic vesicles
2 | AVAVVGQAATVVK-NH2 [PapC, C-terminal analog composed of C-terminal helix residues Ala25–Lys37 of papiliocin] | >128 | >128 | >128 | >128 | >128 | 0.007 | 213 | 0.006 | 256 | 1.56 | – | – | – | – | – | – | – | – | – | – | MIC, Bacillus subtilis [11, 19]: >128 µM; MIC, Escherichia coli [12, 19]: 128 µM; MIC, Pseudomonas aeruginosa [13, 19]: >128 µM; MIC, Salmonella typhimurium [14, 19]: >128 µM; MIC, Staphylococcus aureus [15, 19]: >128 µM; hemolytic activity ([8]; human erythrocytes, 6.25 μM peptide): 49%; killing of E. coli within an hour [16]: did not detectably kill bacteria within an hour; survival rate of RAW264.7 cells ([9]; MTT, 10 μM peptide): 44.2%; permeabilization of zwitterionic vesicles, in words [10]: permeabilized zwitterionic vesicles effectively; inhibition of NO production, in words [17]: does not inhibit NO production; STD effect in presence of LPS [18]: not detected for any region
3 | RWKIAKKIEKVGRNVRDGIIKAGPAVAVVGQAATVVK-NH2 [Papiliocin-5A] | – | 0.500 | – | – | 1.00 | – | – | 1.87 | – | – | 64.0 | 128 | 0.250 | 0.500 | 0.500 | 128 | 1.00 | 1.00 | 0.417 | 107 | –
4 | RWKIFKKIEKVGRNVRDGIIKA-NH2 [PapN] | – | 2.00 | – | – | 2.00 | 120 | – | – | – | – | 8.00 | 64.0 | 1.00 | 2.00 | 2.00 | 8.00 | 4.00 | 2.00 | 1.67 | 26.7 | –
5 | RWKIFKKIEKVGRNVRDGIIKAGPAVAVVGQAATVVK-NH2 [Papiliocin] | – | 0.500 | – | – | 0.500 | – | – | 5.36 | – | – | 16.0 | 64.0 | 0.250 | 0.500 | 0.500 | 32.0 | 0.500 | 1.00 | 0.417 | 37.3 | Therapeutic Index (MHC/GM), gram-positive ([7]; listed as papiliocin): 12.0; cytotoxicity at the peptide's MIC [9]: not toxic at their MICs

Reference: publication PMC4496781, “Functional Roles of Aromatic Residues and Helices of Papiliocin in its Antimicrobial and Anti-inflammatory Activities” (Scientific Reports, 2015)
